According to patent EP4722365A1, “DOUBLE-STRANDED NUCLEOTIDE COMPOUND FOR METABOLIC DISEASES AND USE THEREOF” (Visirna Therapeutics (Suzhou) Co., Ltd., priority 2023, dated 2024):

Key:
Format in all cases: in vivo
human DGAT2 [1] = experiment: Mice receiving hydrodynamic injection of human DGAT2 plasmid via the tail vein (Example 7); conditions: 3 mg/kg subcutaneous single dose day 0; BALB/c mice, liver DGAT2 mRNA
Description: (§1) Animals: BALB/c mice, female, 6-7 weeks old.
(§2) DGAT2 plasmid DNA: pcDNA-DGAT2 plasmid, having a concentration of 2 µg/µL, diluted with physiological saline for later use.
The in-vivo experimental designs for the hydrodynamic injection of DGAT2 plasmid DNA via the tail vein, the administration, and the sample collection method were shown in the table below.
Treatment with compound: The day of administration to mice was defined as day 0, the day before it was day -1, the day after it was day 1, and so on. On day 0, the mice were injected subcutaneously with 5 mL/kg of the solvent or the test compound.
Hydrodynamic injection of DGAT2 plasmid DNA solution into mice via tail vein: On day 14, the plasmid DNA was prepared with normal saline before injection, and stored at 4°C until use. All mice were injected with the plasmid DNA solution in a volume of 8% of the body weight (injection volume (mL)= body weight of mice (g) x 8%) in 5 seconds via the tail vein, and the weight of plasmid injected into each mouse was 10 µg. […]
(§3) RNA in the liver was extracted with Trizol. The concentration of the RNA sample was determined by Nanodrop ONE (ultra-micro ultraviolet-visible spectrophotometer) and diluted to 400 ng/uL with water without RNase for reverse transcription. Quantitative PCR detection of DGAT2 and NEO gene expressions in mouse liver: […]

hDGAT2 = experiment: Mouse model receiving hydrodynamic injection of DGAT2 plasmid via tail vein (Example 5, liver mRNA qPCR); conditions: for Average inhibition rate, % Day 1 after HDI (day 5 after administration): 3mpk subcutaneously day 0, HDI day 4, BALB/c mice; for Average inhibition rate, % Day 1 after HDI (day 15 after administration): 3mpk subcutaneously day 0, HDI day 14, BALB/c mice
Description: BALB/c mice, female, 6-7 weeks old.
pcDNA-DGAT2 plasmid, having a concentration of 2 µg/µL, diluted with physiological saline for later use.
The hydrodynamic injection scheme of DGAT2 plasmid DNA via tail vein, the administration and the sample collection method were as follows.
Treatment with compound: The day of administration to mice was defined as day 0, the day before it was day -1, the day after it was day 1, and so on. On day 0, the mice were injected subcutaneously with 5 mL/kg of the solvent or the test compound, at a dosage of 3mpk.
Hydrodynamic injection of DGAT2 plasmid DNA solution into mice via tail vein: On day 4 or 14, the plasmid DNA was prepared with normal saline before injection, and stored at 4°C until use. All mice were injected with the plasmid DNA solution in a volume of 8% of the body weight (injection volume (mL)= body weight of mice (g) x 8%) in 5 seconds via the tail vein, and the weight of plasmid injected into each mouse was 10 µg.
Endpoint of the experiment and collection of liver samples: On day 5 or 15, that is, 24 hrs after the hydrodynamic injection of DGAT2 plasmid via the tail vein, all mice were euthanized by CO2 inhalation. After euthanasia, blood samples were collected from the heart and liver samples were collected. 2 liver tissues of about 70 mg were immersed in RNAlater®, and incubated overnight at 4 °C. The supernatant was discarded and the remainder was transferred to a freezer at -80°C, for mRNA detection later.
RNA in the liver was extracted with Trizol. The method was briefly described as follows: 50-70 mg of liver tissue and 1.2 mL of Trizol were homogenized with Qiagen Tissue Lyser II at 26 Hz for 2 min and lyzed at room temperature for 5 min. 1 mL of the supernatant was taken, added to 200 uL of chloroform, vigorously shaken for 15 s, allowed to stand for 3 min, and centrifuged. The supernatant was collected, added with an equal volume of isopropanol, and stood overnight at -20°C for precipitation. The precipitate was washed twice with 70% , and dissolved in water without RNase. The concentration of the RNA sample was determined by Nanodrop ONE and diluted to 400 ng/uL with water without RNase for reverse transcription.
The experimental steps of reverse transcription could be made reference to the instruction of FastKing cDNA first strand synthesis kit (genome clean). Briefly, a gDNA removal mixture was prepared according to Table 6. The mixture (5 µL/sample) and 400 ng/µL RNA sample were added to a 96-well PCR reaction plate, incubated at 42°C for 3 min, and cooled on ice. A mixture for reverse transcription was prepared according to Table 7. The reverse transcription mixture (10 µL/sample) and the DNA removal product of the previous step were added to a 96-well PCR reaction plate, for reverse transcription. Reaction conditions: 42°C for 15 min; and 95°C for 3 min. The cDNA was stored at 4°C for further analysis. Table 6. Ingredients for gDNA-removal reaction
Reaction conditions: 95°C for 10 min; and 40 cycles of 95°C for 15 s, and 60°C for 1 min. Table 8. Ingredients for qPCR Reaction (DGAT2)
(§4) The expression of the target gene in each sample was analyzed by relative quantification using ΔΔCt method. In this method, the Ct difference (ΔCt) between the target gene (DGAT2) and the internal reference gene (Neo) was determined, and the ΔCt value of the sample treated with the compound was compared with that of the control group.
The formula is: ΔCt = average Ct value of target gene−average Ct value of reference gene. [formula] [formula]
Data analysis: The data are expressed as the average of each group of mouse samples ± standard error. Unless otherwise specified, n=4 or 5. Student's t test was used for statistical analysis. Table 10.1 Test for evaluating the in-vivo inhibitory activity of siRNA compounds on target gene DGAT2 in mice model receiving hDGAT2 HDI 5 days after administration

human DGAT2 [2] = experiment: Mice receiving hydrodynamic injection of human DGAT2 plasmid via the tail vein (Example 8); conditions: 3 mg/kg subcutaneous single dose day 0; BALB/c mice, liver DGAT2 mRNA
Description: as §1, §2
Experimental method: The in-vivo experimental designs for the hydrodynamic injection of DGAT2 plasmid DNA, the administration and the sample collection method were shown in the table below.
Treatment with compound: The day of administration to mice was defined as day 0, the day before it was day -1, the day after it was day 1, and so on. On day 0, the mice were injected subcutaneously with 5 mL/kg of the solvent or the test compound,
Hydrodynamic injection of DGAT2 plasmid DNA solution into mice via tail vein: On day 14, the plasmid DNA was prepared with normal saline before injection, and stored at 4°C until use. […]
as §3, with “Quantitative PCR detection of DGAT2 gene expression in mouse liver: RNA in” for “RNA in”

DGAT2 = experiment: Inhibitory activity on the target gene DGAT2 in mice (Example 6, liver mRNA RT-PCR); conditions: 3 mg/kg SC, day 0, once; C57BL/6 mice, liver mRNA day 7
Source text: Animals: Male C57BL/6 mice, 6 weeks old, without particular pathogens. Before the experiment, the animals were allowed to acclimate to the environment for 7 days.
Solvent: phosphate buffer (PBS).
In-vivo experiment: The in-vivo experimental designs for the animal administration and the sample collection method were shown in the table below.
Definition of days of experiment: The day of first administration to mice was defined as day 0, the day before it was day -1, the day after it was day 1, and so on.
All mice were given a single dose of PBS, the control compound or the test compound by SC on day 0. On day 7, blood was taken from the submandibular vein plexus mice, and the plasma was collected. Then the mice were euthanized. Blood was taken from the heart for later use. The liver was collected for analysis of target mRNA level in the liver.
Sample detection and analysis: RT-PCR was used to quantitatively detect the level of target mRNA in liver tissue.
as §4, with “(GAPDH)” for “(Neo)”, “group. […]” for “group.”
Data analysis: The data are expressed as the average of each group of mouse samples ± standard error. […]

Substance: dS301: sense (invAb)*gaagaaguUfCfCfagaaauacau*(invAb)[L96]; anti-sense a*Uf*g*UfaUfuucugGfaAfcUfuCfuUf*c
- Average inhibition rate, % (Day 15 after administration) (human DGAT2 [1]): 79%
- Average inhibition rate, % Day 1 after HDI (day 5 after administration) (hDGAT2): 91.68%
- Average inhibition rate, % Day 1 after HDI (day 15 after administration) (hDGAT2): 78.89%

Substance: dS302: sense (invAb)*acaccauaGfAfCfuauuugcuuu*(invAb)[L96]; anti-sense a* Af*a*GfcAfaauagUfcUfaUfgGfuGf*u
- Average inhibition rate, % (Day 15 after administration) (human DGAT2 [2]): 70.4%
- Average inhibition rate, % Day 1 after HDI (day 5 after administration) (hDGAT2): 97.46%
- Average inhibition rate, % Day 1 after HDI (day 15 after administration) (hDGAT2): 70.35%

Substance: dS303: sense (invAb)*uguacauaUfUfCfugcacugauu*(invAb)[L96]; anti-sense a* Af*u*CfaGfugcagAfaUfaUfgUfaCf*a
- Average inhibition rate, % Day 1 after HDI (day 5 after administration) (hDGAT2): 85.53%

Substance: dS304: sense (invAb)*cgcuacuuUfCfGfagacuacuuu*(invAb)[L96]; anti-sense a*Af*a*GfuAfgucucGfaAfaGfuAfgCf*g
- Average inhibition rate, % Day 1 after HDI (day 5 after administration) (hDGAT2): 66.33%

Substance: dS305: sense [NAG37](invAb)*uggguuauUfUfAfaaagaaauua*(invAb ); anti-sense u*Af*a*UfuUfcuuuuAfaAfuAfaCfcCf*a
- Average inhibition rate, % Day 1 after HDI (day 5 after administration) (hDGAT2): 95.59%

Substance: dS306: sense [NAG37](invAb)*uguggguuAfUfUfuaaaagaaau*(invAb ); anti-sense a*Uf*u*UfcUfuuuaaAfuAfaCfcCfaCf*a
- Average inhibition rate, % Day 1 after HDI (day 5 after administration) (hDGAT2): 96.72%

Substance: dS307: sense (invAb)*ggugucugUfGfGfguuauuuaaa*(invAb)*[L96]; anti-sense Vpu*Uf*Uf*AfaauaaccCfaCfaGfacac*c
- Average inhibition rate (%) (7 days) (DGAT2): 76%
- Average inhibition rate, % Day 1 after HDI (day 15 after administration) (hDGAT2): 61.03%

Substance: dS316: sense (invAb)*gaagaaguUfCfCfagaaauacaa[L96]; anti-sense Vpu*Uf*g*UfaUfuucugGfaAfcUfuCfuUf* c
- Average inhibition rate, % (Day 15 after administration) (human DGAT2 [1]): 66%
